The inhibition is how much of the control response was suppressed. For orientation: half-life means the time in which the quantity being followed falls by half. A high value points to slow decline. The bioavailability is the share of a dose that reaches the circulation, judged against a reference dose that is usually intravenous. Usually Tmax stands for the time from dosing to the highest level. Usually pIC50 stands for the negative decadic logarithm of the IC50, by convention in mol/L. Read a high pIC50 as a small IC50. The term AUC(0-t) denotes the area under the concentration-time curve up to a stated or last time point. A lower AUC(0-t) goes with low exposure. As usually defined, the Cmax is the maximum level reached in the sampled fluid or tissue.

The structures appear in SMILES notation. pIC50: −log10 of the molar value. Activity calls are given as the source filed them. No cut-off for these calls is given here.

In data set [1] the test system is Mus musculus. The data set is described as follows: Anti-inflammatory activity in C57BL/6 mouse model of LPS-induced ALI assessed as inhibition of IL-6 level in serum at 20 mg/kg, po measured after 6 hrs with administered on every 12 hrs followed by LPS treatment after 30 mins post-compound treatment by ELISA. It counts as functional, organism-based. The conditions noted are these: time 6.5 hrs. Background: ELISA stands for enzyme-linked immunosorbent assay.

Data set [2] concerns Mus musculus. The data set is described as follows: Anti-inflammatory activity in C57BL/6 mouse model of LPS-induced ALI assessed as inhibition of TNF-alpha level in serum at 20 mg/kg, po measured after 6 hrs with administered on every 12 hrs followed by LPS treatment after 30 mins post-compound treatment by ELISA. Format: functional, organism-based. The conditions noted are these: time 6.5 hrs.

Data set [3] is described as follows: Half life in Sprague-Dawley rat at 1 mg/kg, iv measured for 24 hrs. It counts as ADME, organism-based. The conditions noted are these: in vivo.
Data set [4] in a line: Acute toxicity in C57BL/6 mouse assessed as change in pathological change in liver at 100 to 200 mg/kg, po measured for 10 days by H and E staining based analysis. It counts as organism-based. As to conditions: in vivo, 240 h, dose 100-200 mg/kg, time 10 day.
Data set [5] in a line: Acute toxicity in C57BL/6 mouse assessed as change in pathological change in heart at 100 to 200 mg/kg, po measured for 10 days by H and E staining based analysis. It counts as organism-based. As to conditions: in vivo, 240 h, dose 100-200 mg/kg, time 10 day.
A short description of data set [6]: Oral bioavailability in Sprague-Dawley rat at 10 mg/kg measured for 24 hrs. It counts as ADME, organism-based. As to conditions: in vivo.
The nature of data set [7]: Tmax in Sprague-Dawley rat at 1 mg/kg, iv measured for 24 hrs. The conditions noted are these: in vivo. It counts as ADME, organism-based.
Data set [8] has as its target T1, Interleukin-1 receptor-associated kinase 4 (Homo sapiens) (UniProt Q9NWZ3).
T1 sequence (whole entry): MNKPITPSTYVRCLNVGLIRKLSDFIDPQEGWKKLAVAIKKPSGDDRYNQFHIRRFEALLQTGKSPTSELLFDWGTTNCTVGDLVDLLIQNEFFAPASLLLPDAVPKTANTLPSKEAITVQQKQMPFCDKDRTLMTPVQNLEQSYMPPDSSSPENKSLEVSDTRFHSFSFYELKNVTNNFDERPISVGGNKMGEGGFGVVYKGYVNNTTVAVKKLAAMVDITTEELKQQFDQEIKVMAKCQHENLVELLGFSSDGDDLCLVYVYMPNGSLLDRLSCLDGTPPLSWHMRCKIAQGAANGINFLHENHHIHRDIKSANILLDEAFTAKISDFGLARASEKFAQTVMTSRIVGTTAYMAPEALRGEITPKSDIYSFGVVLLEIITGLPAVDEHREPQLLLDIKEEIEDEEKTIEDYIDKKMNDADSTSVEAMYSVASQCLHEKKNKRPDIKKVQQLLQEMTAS
As to the kind of experiment: Inhibition of IRAK4 (unknown origin) at 10 uM relative to control.

The test system of data set [9] is J774.A1. The data set is described as follows: cells. The conditions noted are these: Mus musculus.
Description: Anti-inflammatory activity in mouse J774.A1 cells assessed as inhibition of LPS-induced IL-6 level preincubated for 30 mins followed by LPS addition measured after 24 hrs by ELISA
A short description of data set [10]: AUC (0 to t) in Sprague-Dawley rat at 1 mg/kg, iv measured for 24 hrs. As to conditions: in vivo. It counts as ADME, organism-based.
Data set [11] has as its target Mitogen-activated protein kinase 9 (Homo sapiens) (UniProt P45984). As to the kind of experiment: Inhibition of JNK2 (unknown origin) at 10 uM relative to control.
Data set [12] relates to Mus musculus. The data set is described as follows: Anti-inflammatory activity in C57BL/6 mouse model of LPS-induced ALI assessed as decrease in protein concentration in BALF at 20 mg/kg, po measured after 6 hrs with administered on every 12 hrs followed by LPS treatment after 30 mins post-compound treatment. Format: functional, organism-based. As to conditions: time 6.5 hrs.

In data set [13] the test system is Mus musculus. The data set is described as follows: Anti-inflammatory activity in C57BL/6 mouse model of LPS-induced ALI assessed as decrease in inflammatory cell infiltration in lung tissue at 20 mg/kg, po measured after 6 hrs with administered on every 12 hrs followed by LPS treatment after 30 mins post-compound treatment by H and E/IHC staining based analysis. It counts as functional, organism-based. The conditions noted are these: time 6.5 hrs.

Data set [14] can be described thus: Tmax in Sprague-Dawley rat at 10 mg/kg, po measured for 24 hrs. As to conditions: in vivo. It counts as ADME, organism-based.
Data set [15] relates to Mus musculus. As to the kind of experiment: Anti-inflammatory activity in C57BL/6 mouse model of DSS-induced ulcerative colitis assessed as decrease in hyperplasia in white pulp of spleen administered orally for 8 days. It counts as functional, organism-based. The conditions noted are these: dose 20-40 mg/kg, route po, time 8.0 day.
The nature of data set [16]: Acute toxicity in C57BL/6 mouse assessed as change in pathological change in spleen at 100 to 200 mg/kg, po measured for 10 days by H and E staining based analysis. It counts as organism-based. The conditions noted are these: in vivo, 240 h, dose 100-200 mg/kg, time 10 day.
Data set [17] can be described thus: Cmax in Sprague-Dawley rat at 1 mg/kg, iv measured for 24 hrs. Format: ADME, organism-based. As to conditions: in vivo.
For another data set, the system named is THP-1. As to the kind of experiment: cells. As to conditions: Homo sapiens.
In data set [18] the test system is Mus musculus. The data set is described as follows: Anti-inflammatory activity in C57BL/6 mouse model of DSS-induced ulcerative colitis assessed as decrease in serum IL-6 level at 20 to 40 mg/kg, po administered for 8 days by ELISA. It counts as functional, organism-based. As to conditions: dose 20-40 mg/kg, time 8.0 day.
Data set [19] concerns J774.A1. The data set is described as follows: cells. As to conditions: Mus musculus. The source holds these as a separate data set.
Description: Anti-inflammatory activity in mouse J774.A1 cells assessed as inhibition of LPS-induced TNF-alpha level preincubated for 30 mins followed by LPS addition measured after 24 hrs by ELISA
Another data set concerns RAW264.7. The data set is described as follows: cells. As to conditions: Mus musculus.

Chain of Mitogen-activated protein kinase 9 (Homo sapiens) (P45984 whole entry, looked up): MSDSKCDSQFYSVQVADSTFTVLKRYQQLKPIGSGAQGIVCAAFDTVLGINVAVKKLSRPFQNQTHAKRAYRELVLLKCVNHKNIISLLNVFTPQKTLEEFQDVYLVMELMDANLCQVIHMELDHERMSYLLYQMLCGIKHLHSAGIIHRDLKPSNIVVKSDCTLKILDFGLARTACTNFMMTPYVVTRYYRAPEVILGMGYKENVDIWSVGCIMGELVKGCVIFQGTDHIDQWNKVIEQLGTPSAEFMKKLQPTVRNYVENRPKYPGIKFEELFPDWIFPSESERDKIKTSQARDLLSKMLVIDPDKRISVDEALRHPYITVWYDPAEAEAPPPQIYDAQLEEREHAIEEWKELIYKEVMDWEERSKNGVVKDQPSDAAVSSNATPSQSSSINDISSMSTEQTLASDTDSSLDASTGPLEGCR
Description for RAW264.7: Anti-inflammatory activity in mouse RAW264.7 cells assessed as inhibition of LPS-induced IL-6 level preincubated for 30 mins followed by LPS addition measured after 24 hrs by ELISA
Description for THP-1: Anti-inflammatory activity in human THP-1 cells assessed as inhibition of LPS-induced IL-6 level preincubated for 30 mins followed by LPS addition measured after 24 hrs by ELISA

Turning to `COc1cc2c(O[C@H]3CC[C@@H](N)CC3)ncnc2cc1OCc1cccc(Br)c1`, the inhibition result in the data set with Mus musculus [1] and with Mus musculus [2] was “Active” each time. Besides, in [3], the half-life is 1.77 h. In addition, the Activity result in data set [4] is “Non-toxic”; in [5], “Non-toxic”; in the data set with Mus musculus [15], “Dose-dependent-effect”; in data set [16], “Non-toxic”; in the data set with Mus musculus [18], “Active; Activity Was Comparable To 5-Asa”. For the same compound, in data set [6], the bioavailability was 5.5%. Further, the values for the Tmax in data set [7] and in [14] were 4.8 min and 2 h, respectively. The inhibition in data set [8] worked out at 100%; in data set [11] it was 2.49%. Moreover, the pIC50 was 5.82 in the data set on J774.A1 [9], 6.02 in the data set with THP-1, 5.88 in the data set on J774.A1 [19] and 6.32 in the data set with RAW264.7. The same compound displayed an AUC(0-t) at 24 h in data set [10] of 7730 ng·h/mL. The result with Mus musculus [12] and in the data set on Mus musculus [13] was Active. In data set [17], the concentration peaked (Cmax) at 7280 ng/mL.

The record behind these values is ChEMBL document CHEMBL6109094, “Anti-inflammatory agents design via the fragment hybrid strategy in the discovery of compound c1 for treating ALI and UC” (Eur J Med Chem, 2025).
